Data as given in publication PMC4264767, “Discovery of Two β-1,2-Mannoside Phosphorylases Showing Different Chain-Length Specificities from Thermoanaerobacter sp. X-514” (PLoS ONE, 2014).

Target: T1, Teth514_1788 (Thermoanaerobacter sp. X514, UniProt B0K2C2)
T1 construct: full-length, no signal peptide predicted, C-terminal His6-tag (pET24a) kept, E. coli Rosetta 2 (DE3); theoretical mass 33,997; homodimer
T1 sequence (B0K2C2 1-296): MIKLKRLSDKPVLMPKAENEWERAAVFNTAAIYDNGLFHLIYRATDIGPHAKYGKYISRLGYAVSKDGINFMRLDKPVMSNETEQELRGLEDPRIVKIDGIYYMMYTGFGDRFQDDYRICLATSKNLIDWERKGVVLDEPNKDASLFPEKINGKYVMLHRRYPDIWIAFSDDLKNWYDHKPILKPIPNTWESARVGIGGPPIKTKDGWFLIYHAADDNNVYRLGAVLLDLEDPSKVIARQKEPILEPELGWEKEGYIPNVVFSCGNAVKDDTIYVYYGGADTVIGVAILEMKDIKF
Assay: colorimetric α-Man1P release, sequential Bi Bi fit
Type: biochemical
Details: kinetic constant K iA of substrate A, no inhibition constant; phosphorolysis; Pi 0.10-2.0 mM; 40 mM MES-NaOH pH 6.0; 30°C

`OC[C@H]1O[C@@H](O[C@@H]2[C@H](O[C@@H]3[C@H](O[C@@H]4C(O)O[C@H](CO)[C@@H](O)[C@@H]4O)O[C@H](CO)[C@@H](O)[C@@H]3O)O[C@H](CO)[C@@H](O)[C@@H]2O)[C@@H](O)[C@@H](O)[C@@H]1O` (stereo partly drawn) [product 3, β-D-mannopyranosyl-(1→2)-β-D-mannopyranosyl-(1→2)-β-D-mannopyranosyl-(1→2)-D-mannose] and `OC[C@H]1O[C@@H](O[C@@H]2[C@H](O[C@@H]3C(O)O[C@H](CO)[C@@H](O)[C@@H]3O)O[C@H](CO)[C@@H](O)[C@@H]2O)[C@@H](O)[C@@H](O)[C@@H]1O` (stereo partly drawn) [product 2, β-D-mannopyranosyl-(1→2)-β-D-mannopyranosyl-(1→2)-D-mannose] are within error of each other in “K iA” value: 1.9 ± 0.6 mM for the first, 2.1 ± 0.5 mM for the second.

In the case of `OC[C@H]1O[C@@H](O[C@@H]2C(O)O[C@H](CO)[C@@H](O)[C@@H]2O)[C@@H](O)[C@@H](O)[C@@H]1O` (stereo partly drawn) [product 1, β-D-mannopyranosyl-(1→2)-D-mannose], the “K iA” value is reported as 0.63 ± 0.2 mM.
